In patent US20040254243A1 (priority 2001, published 2004):
Read-outs that look alike come from different tables or passages of the source.

Legend:
[1] = cited from earlier work
[2] = pKa values from the literature

SMILES	pKa ([1]; acetonitrile/water (3/1))	pKa ([1]; methanol/water (3/1))	pKa ([2]; acetonitrile/water (3/1) and methanol/water (3/1))	pK, mean value ([2]; mean of pK1 and pK2)
CC(C(=O)O)c1cccc(C(=O)c2ccccc2)c1 (stereo not shown) [ketoprofen, 2-(3-benzoylphenyl)propionic acid]	5.02	5.94	~5.5	
N=C(N)NCCC[C@H](N)C(=O)O [arginine]				about 5.6
